Results taken from US20070179716A1, “Crystal structure of cytochrome P450 3A4 and uses thereof” (ASTEX THERAPEUTICS LIMITED, priority 2001, published 2007).

Experiments:
[1] = target: human cytochrome P450 3A4 (Homo sapiens, UniProt P08684)
Procedure: 3A4 protein produced essentially as described in “Protein purification (3)” above was used to obtain co-crystals with metyrapone, apart from replacing the CM-Sepharose column with a CM-fast flow column. Co-crystals of metyrapone were generated using crystallisation conditions of 0.1M Hepes pH 7.5, 0.25M sodium chloride, 5% MPD, 50 mM Calcium chloride, 10% (w/v) PEG 4000, and soaking the crystals in 0.5 mM metyrapone for 4 hours. […] The Fe—N bond distance was loosely restrained to […] during the refinement.
3A4 protein produced essentially as described in “Protein purification (3)” above was used to obtain co-crystals with progesterone, apart from replacing the CM-Sepharose column with a CM-fast flow column. Co-crystals of progesterone were obtained by co-crystallisation using 0.5 mM progesterone in 2.5% ethanol and crystallisation conditions of 0.1M HEPES pH 7.5, 0.25M potassium chloride, 12% (w/v) PEG 4000, 5% (w/v) MPD, 25 mM calcium chloride.
Molecular replacement was performed using the program AMORE and using the CYP3A4 crystal structure described in Table 1 as the search model. […] This molecular replacement model was then used as a starting model for subsequent refinement of other datasets from crystal form 2.
Apo (compound-free) crystals of 3A4 were obtained by setting up a 1:1 ratio of protein (at 36.5 mg/ml in buffer, 10 mM KPi, pH7.2, 20% glycerol, 1 mM EDTA, 2 mM DTT, 0.5M KCl) against 0.1 M Hepes-NaOH pH 7.5, 1.44 M sodium citrate.
Apo (compound-free) crystals of 3A4 were generated by setting up a 1:1 ratio of protein (at 36.5 mg/ml in buffer, 10 mM KPi, pH7.2, 20% glycerol, 1 mM EDTA, 2 mM DTT, 0.5M KCl) against 0.1M Hepes-NaOH pH 7.5, 1.424M Sodium citrate. The resulting crystals were soaked for 18 hours in a mother liquor containing 5 mM fluconazole, and then frozen using 0.1M Hepes-NaOH pH7.5, 1.4M sodium citrate, 15% glycerol.

[2] = target: T1, CYP3A4 (Homo sapiens, UniProt P08684); experiment: UV/visible spectroscopy of inhibitor binding in solution; settings: UV/visible spectroscopic data (not shown)
T1 construct: made in house; host or cells: E. coli XL1 Blue
T1 sequence (P08684 with tags, fused parts or gaps): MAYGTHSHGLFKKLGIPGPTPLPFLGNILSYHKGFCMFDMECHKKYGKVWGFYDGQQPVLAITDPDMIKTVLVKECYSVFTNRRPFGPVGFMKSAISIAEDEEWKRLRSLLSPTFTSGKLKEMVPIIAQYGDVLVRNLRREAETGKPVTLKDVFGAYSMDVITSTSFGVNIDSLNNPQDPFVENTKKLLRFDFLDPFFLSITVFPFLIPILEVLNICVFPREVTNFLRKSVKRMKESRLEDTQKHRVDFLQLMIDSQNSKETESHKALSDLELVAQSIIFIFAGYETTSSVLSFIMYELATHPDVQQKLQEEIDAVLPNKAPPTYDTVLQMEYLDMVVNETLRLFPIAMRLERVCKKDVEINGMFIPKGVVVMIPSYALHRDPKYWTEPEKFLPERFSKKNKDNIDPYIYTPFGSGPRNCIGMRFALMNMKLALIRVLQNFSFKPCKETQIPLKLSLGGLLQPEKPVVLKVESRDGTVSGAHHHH

Sequence of human cytochrome P450 3A4 (P08684 with tags, fused parts or gaps): as above

distance of the compound (nearest atom) from the haem iron [1] | separation of the two bound copies of the compound [1] | binding mode in solution [2] | volume occupied by the molecule in the active site [1] [Å^3] | Structure (SMILES) | binding position of the compound in the 3A4 crystal structure [1]
approximately 14 Å | approximately 7 Å |  |  | OC(Cn1cncn1)(Cn1cncn1)c1ccc(F)cc1F [fluconazole] | 
 |  | liganded to the haem | 50 | CC(C)(C(=O)c1cccnc1)c1cccnc1 [metyrapone] | bound directly to the haem iron via a pyridine nitrogen
 |  |  |  | CC(=O)[C@H]1CC[C@H]2[C@@H]3CCC4=CC(=O)CC[C@]4(C)[C@H]3CC[C@]12C [progesterone] | bound at a peripheral site very close to the Phe-cluster
